How the values were obtained:
Test in all cases: relative viability (nuclei count vs DMSO), 5 days (fraction); higher = more cells survive
A-427 = tested on: A-427
Method in brief: (§1)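 One day after seeding in 1536-well plates, lung cancer cell lines were dosed by pin tool. Dosing was either single-drug or a fixed anchor-drug dose plus five library-drug doses (not always all listed) in √10 steps. After 5 days, nuclei were stained in one fix-and-stain step and counted on 4× images, and relative viability is the nuclei count of treated wells over that of vehicle wells, given as the median of duplicate plates.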

ABC-1 = tested on: ABC-1
Method in brief: as §1

COR-L23 = tested on: COR-L23
Method in brief: as §1

ChaGo-K-1 = tested on: ChaGo-K-1
Method in brief: as §1

EMC-BAC-2 = tested on: EMC-BAC-2
Method in brief: as §1

HARA = tested on: HARA
Method in brief: as §1

HCC-15 = tested on: HCC-15
Method in brief: as §1

HCC-366 = tested on: HCC-366
Method in brief: as §1

HCC-78 = tested on: HCC-78
Method in brief: as §1

LC-2-ad = tested on: LC-2-ad
Method in brief: as §1

LK-2 = tested on: LK-2
Method in brief: as §1

NCI-H1650 = tested on: NCI-H1650
Method in brief: as §1

NCI-H1734 = tested on: NCI-H1734
Method in brief: as §1

NCI-H1793 = tested on: NCI-H1793
Method in brief: as §1

NCI-H1944 = tested on: NCI-H1944
Method in brief: as §1

NCI-H1993 = tested on: NCI-H1993
Method in brief: as §1

NCI-H2009 = tested on: NCI-H2009
Method in brief: as §1

NCI-H2023 = tested on: NCI-H2023
Method in brief: as §1

NCI-H2228 = tested on: NCI-H2228
Method in brief: as §1

NCI-H23 = tested on: NCI-H23
Method in brief: as §1

NCI-H2405 = tested on: NCI-H2405
Method in brief: as §1

NCI-H838 = tested on: NCI-H838
Method in brief: as §1

SK-LU-1 = tested on: SK-LU-1
Method in brief: as §1

UMC-11 = tested on: UMC-11
Method in brief: as §1

SMILES: CC(C)Oc1cc(Nc2nc(N[C@@H](C)c3ccc(F)cn3)ncc2Cl)n[nH]1 [AZ23] + COc1cccc2cc(-c3nc([C@H]4CC[C@H](C(=O)O)CC4)n4ncnc(N)c34)[nH]c12 [OSI-027] (partner 0.5 µM)
- relative viability (A-427; first compound 0.01 µM): 0.37
- relative viability (A-427; first compound 0.03162 µM): 0.448
- relative viability (A-427; first compound 0.3162 µM): 0.34
- relative viability (ABC-1; first compound 0.01 µM): 0.398
- relative viability (ABC-1; first compound 0.03162 µM): 0.408
- relative viability (ABC-1; first compound 0.3162 µM): 0.469
- relative viability (COR-L23; first compound 0.01 µM): 0.758
- relative viability (COR-L23; first compound 0.03162 µM): 0.868
- relative viability (COR-L23; first compound 0.3162 µM): 0.822
- relative viability (ChaGo-K-1; first compound 0.01 µM): 0.641
- relative viability (ChaGo-K-1; first compound 0.03162 µM): 0.593
- relative viability (ChaGo-K-1; first compound 0.3162 µM): 0.695
- relative viability (EMC-BAC-2; first compound 0.01 µM): 0.373
- relative viability (EMC-BAC-2; first compound 0.03162 µM): 0.42
- relative viability (EMC-BAC-2; first compound 0.3162 µM): 0.365
- relative viability (HARA; first compound 0.03162 µM): 0.686
- relative viability (HARA; first compound 0.3162 µM): 0.415
- relative viability (HCC-15; first compound 0.01 µM): 0.687
- relative viability (HCC-15; first compound 0.03162 µM): 0.665
- relative viability (HCC-15; first compound 0.3162 µM): 0.684
- relative viability (HCC-366; first compound 0.01 µM): 1.06
- relative viability (HCC-366; first compound 0.03162 µM): 0.872
- relative viability (HCC-366; first compound 0.3162 µM): 1.05
- relative viability (HCC-78; first compound 0.01 µM): 0.52
- relative viability (HCC-78; first compound 0.03162 µM): 0.349
- relative viability (HCC-78; first compound 0.3162 µM): 0.322
- relative viability (LC-2-ad; first compound 0.01 µM): 0.953
- relative viability (LC-2-ad; first compound 0.03162 µM): 0.802
- relative viability (LC-2-ad; first compound 0.3162 µM): 0.672
- relative viability (LK-2; first compound 0.01 µM): 0.176
- relative viability (LK-2; first compound 0.03162 µM): 0.198
- relative viability (LK-2; first compound 0.3162 µM): 0.183
- relative viability (NCI-H1650; first compound 0.03162 µM): 0.689
- relative viability (NCI-H1650; first compound 0.3162 µM): 0.713
- relative viability (NCI-H1734; first compound 0.01 µM): 0.628
- relative viability (NCI-H1734; first compound 0.03162 µM): 0.62
- relative viability (NCI-H1734; first compound 0.3162 µM): 0.588
- relative viability (NCI-H1793; first compound 0.01 µM): 0.226
- relative viability (NCI-H1793; first compound 0.03162 µM): 0.303
- relative viability (NCI-H1793; first compound 0.3162 µM): 0.28
- relative viability (NCI-H1944; first compound 0.01 µM): 0.401
- relative viability (NCI-H1944; first compound 0.03162 µM): 0.456
- relative viability (NCI-H1944; first compound 0.3162 µM): 0.498
- relative viability (NCI-H1993; first compound 0.01 µM): 0.581
- relative viability (NCI-H1993; first compound 0.03162 µM): 0.559
- relative viability (NCI-H1993; first compound 0.3162 µM): 0.529
- relative viability (NCI-H2009; first compound 0.01 µM): 0.651
- relative viability (NCI-H2009; first compound 0.03162 µM): 0.706
- relative viability (NCI-H2009; first compound 0.3162 µM): 0.765
- relative viability (NCI-H2023; first compound 0.03162 µM): 0.373
- relative viability (NCI-H2023; first compound 0.3162 µM): 0.437
- relative viability (NCI-H2228; first compound 0.01 µM): 0.785
- relative viability (NCI-H2228; first compound 0.03162 µM): 0.776
- relative viability (NCI-H2228; first compound 0.3162 µM): 0.671
- relative viability (NCI-H23; first compound 0.03162 µM): 0.58
- relative viability (NCI-H23; first compound 0.3162 µM): 0.599
- relative viability (NCI-H2405; first compound 0.01 µM): 0.555
- relative viability (NCI-H2405; first compound 0.03162 µM): 0.667
- relative viability (NCI-H2405; first compound 0.3162 µM): 0.614
- relative viability (NCI-H838; first compound 0.01 µM): 0.437
- relative viability (NCI-H838; first compound 0.03162 µM): 0.402
- relative viability (NCI-H838; first compound 0.3162 µM): 0.424
- relative viability (SK-LU-1; first compound 0.03162 µM): 0.403
- relative viability (SK-LU-1; first compound 0.3162 µM): 0.379
- relative viability (UMC-11; first compound 0.01 µM): 0.429
- relative viability (UMC-11; first compound 0.03162 µM): 0.505
- relative viability (UMC-11; first compound 0.3162 µM): 0.494

SMILES: CC(C)Oc1cc(Nc2nc(N[C@@H](C)c3ccc(F)cn3)ncc2Cl)n[nH]1 [AZ23] + CS(=O)(=O)N1CCN(Cc2cc3nc(-c4cccc5[nH]ncc45)nc(N4CCOCC4)c3s2)CC1 [Pictilisib] (partner 1 µM)
- relative viability (A-427; first compound 0.01 µM): 0.819
- relative viability (A-427; first compound 0.03162 µM): 0.716
- relative viability (A-427; first compound 0.3162 µM): 0.62
- relative viability (ABC-1; first compound 0.01 µM): 0.634
- relative viability (ABC-1; first compound 0.03162 µM): 0.909
- relative viability (ABC-1; first compound 0.3162 µM): 0.841
- relative viability (COR-L23; first compound 0.01 µM): 0.587
- relative viability (COR-L23; first compound 0.03162 µM): 0.947
- relative viability (COR-L23; first compound 0.3162 µM): 0.862
- relative viability (ChaGo-K-1; first compound 0.01 µM): 0.658
- relative viability (ChaGo-K-1; first compound 0.03162 µM): 1.18
- relative viability (ChaGo-K-1; first compound 0.3162 µM): 0.661
- relative viability (EMC-BAC-2; first compound 0.01 µM): 0.535
- relative viability (EMC-BAC-2; first compound 0.03162 µM): 0.576
- relative viability (EMC-BAC-2; first compound 0.3162 µM): 0.51
- relative viability (HARA; first compound 0.01 µM): 0.421
- relative viability (HARA; first compound 0.03162 µM): 0.373
- relative viability (HARA; first compound 0.3162 µM): 0.282
- relative viability (HCC-15; first compound 0.01 µM): 0.968
- relative viability (HCC-15; first compound 0.03162 µM): 0.73
- relative viability (HCC-15; first compound 0.3162 µM): 0.782
- relative viability (HCC-366; first compound 0.01 µM): 0.14
- relative viability (HCC-366; first compound 0.03162 µM): 0.145
- relative viability (HCC-366; first compound 0.3162 µM): 0.147
- relative viability (HCC-78; first compound 0.01 µM): 0.192
- relative viability (HCC-78; first compound 0.03162 µM): 0.195
- relative viability (HCC-78; first compound 0.3162 µM): 0.195
- relative viability (LC-2-ad; first compound 0.01 µM): 0.386
- relative viability (LC-2-ad; first compound 0.03162 µM): 0.574
- relative viability (LC-2-ad; first compound 0.3162 µM): 0.357
- relative viability (LK-2; first compound 0.03162 µM): 0.499
- relative viability (LK-2; first compound 0.3162 µM): 0.59
- relative viability (NCI-H1650; first compound 0.01 µM): 0.553
- relative viability (NCI-H1650; first compound 0.03162 µM): 0.585
- relative viability (NCI-H1650; first compound 0.3162 µM): 0.514
- relative viability (NCI-H1734; first compound 0.01 µM): 0.429
- relative viability (NCI-H1734; first compound 0.03162 µM): 0.543
- relative viability (NCI-H1734; first compound 0.3162 µM): 0.487
- relative viability (NCI-H1793; first compound 0.01 µM): 0.318
- relative viability (NCI-H1793; first compound 0.03162 µM): 0.369
- relative viability (NCI-H1793; first compound 0.3162 µM): 0.371
- relative viability (NCI-H1944; first compound 0.01 µM): 0.342
- relative viability (NCI-H1944; first compound 0.03162 µM): 0.353
- relative viability (NCI-H1944; first compound 0.3162 µM): 0.319
- relative viability (NCI-H1993; first compound 0.01 µM): 0.755
- relative viability (NCI-H1993; first compound 0.3162 µM): 0.869
- relative viability (NCI-H2009; first compound 0.01 µM): 0.943
- relative viability (NCI-H2009; first compound 0.03162 µM): 0.88
- relative viability (NCI-H2009; first compound 0.3162 µM): 0.854
- relative viability (NCI-H2023; first compound 0.03162 µM): 0.248
- relative viability (NCI-H2023; first compound 0.3162 µM): 0.192
- relative viability (NCI-H2228; first compound 0.01 µM): 0.523
- relative viability (NCI-H2228; first compound 0.03162 µM): 0.346
- relative viability (NCI-H2228; first compound 0.3162 µM): 0.394
- relative viability (NCI-H23; first compound 0.03162 µM): 0.543
- relative viability (NCI-H23; first compound 0.3162 µM): 0.448
- relative viability (NCI-H2405; first compound 0.01 µM): 0.412
- relative viability (NCI-H2405; first compound 0.03162 µM): 0.575
- relative viability (NCI-H2405; first compound 0.3162 µM): 0.429
- relative viability (NCI-H838; first compound 0.01 µM): 0.467
- relative viability (NCI-H838; first compound 0.03162 µM): 0.464
- relative viability (NCI-H838; first compound 0.3162 µM): 0.51
- relative viability (SK-LU-1; first compound 0.01 µM): 0.408
- relative viability (SK-LU-1; first compound 0.03162 µM): 0.599
- relative viability (SK-LU-1; first compound 0.3162 µM): 0.553
- relative viability (UMC-11; first compound 0.01 µM): 0.762
- relative viability (UMC-11; first compound 0.03162 µM): 0.963
- relative viability (UMC-11; first compound 0.3162 µM): 0.818
